Results published in patent US4111955A, “N-Trihalomethanesulfenyl carbamoyloximino di-sulfur heterocyclic compounds” (priority 1976, dated 1978).
Converted amounts (≈) assume the structure as drawn.

What was measured:
[1] = system: aphid, mite, Southern Armyworm, Bean Beetle and House fly; assay: Overall pesticidal activity / insect toxicity compared with methylcarbamoyl derivatives; type: in vivo; conditions: all cases except the bean-beetle; Table II
Text: (§1) In these tests the pesticidal activity of the compounds against aphid, mite, Southern Armyworm, Bean Beetle and House fly was rated as follows:
In the above Table, A indicates excellent control, B indicates partial control and C indicates no control. For comparison purposes, there is provided immediately below the data presented for the trihalomethanesulfenyl derivative the activity measurements achieved from the corresponding methyl-carbamoyl derivative adjacent to the chemical designation --NHCH3.
(§2) The LD50 values shown in the above Table II were determined by testing the compositions over an appropriate concentration range obtained by serial dilution of the stock suspension with water. The percent kill was plotted on log-probit graph paper versus parts per million concentration, and the LD50 read from an eye-fitted line drawn through the resultant points.

[2] = system: bean aphid (Aphis fabae Scop.); assay: Bean Aphid Foliage Spray Test; type: in vivo; design: key to pesticidal activity rating, Aphid: A: excellent control; B: partial control; C: no control
Method: Adults and nymphal stages of the bean aphid (Aphis fabae Scop.) reared on potted dwarf nasturtium plants at 65°-70° F. and 50-70 percent relative humidity, constituted the test insects. For testing purposes, the number of aphids per pot was standardized to 100-150 by trimming plants containing excess aphids.
The test compounds were formulated by diluting the stock suspension with water to give a suspension containing 500 parts of test compound per million parts of final formulation.
The potted plants (one pot per compound tested) infested with 100-150 aphids, were placed on a revolving turntable and sprayed with 100-110 milliliters of test compound formulation by use of a DeVilbiss spray gun set at 40 psig. air pressure. This application, which lasted 25 seconds, was sufficient to wet the plants to run-off. As a control, 100-110 milliliters of a water-acetone-emulsifier solution containing no test compound were also sprayed on infested plants. After spraying, the pots were placed on their sides on a sheet of white standard mimeograph paper which had been previously ruled to facilitate counting. Temperature and humidity in the test room during the 24 hour holding period were 65°-70° F. and 50-70 percent, respectively. Aphids which fell onto the paper and were unable to remain standing after being uprighted were considered dead. Aphids remaining on the plants were observed closely for movement and those which were unable to move the length of the body upon stimulation by prodding were considered dead. Percent mortality was recorded for various concentration levels.
as §1, §2

mites = assay: Systemic miticidal activity (soil drench of infested bean plants); type: in vivo, Tetranychus urticae Koch; conditions: Table II
Method: Adults and nymphal stages of the two-spotted mite (Tetranychus urticae Koch), reared on Tendergreen bean plants at 80±5 percent relative humidity, were the test organisms. Infested leaves from a stock culture were placed on the primary leaves of two bean plants 6 to 8 inches in height, growing in a 21/2 inch clay pot. 150-200 Mites, a sufficient number for testing, transferred from the excised leaves to the fresh plants in a period of 24 hours. Following the 24 hour transfer period, the excised leaves were removed from the infested plants. The test compounds were formulated by diluting the stock suspension with water to give a suspension containing 500 parts of test compound per million parts of final formulation. The potted plants (one pot per compound) were placed on a revolving turntable and sprayed with 100-110 milliliters of test compound formulation by use of a DeVilbiss spray gun set at 40 psig. air pressure. This application, which lasted 25 seconds, was sufficient to wet the plants to run-off. As a control, 100-110 milliliters of a water solution containing acetone and emulsifier in the same concentrations as the test compound formulation, but containing no test compound, were also sprayed on infested plants. The sprayed plants were held at 80±5 percent relative humidity for 6 days, after which a mortality count of motile forms was made. Microscopic examination for motile forms was made on the leaves of the test plants. Any individual which was capable of locomotion upon prodding was considered living.
as §2
Systemic treatments were made by drenching 20 milliliters of the test compound formulation into the soil around the roots of bean plants growing in 21/2 inch clay pots. […]

Structure (SMILES): CN(SC(Cl)(Cl)Cl)C(=O)ON=C1CSCCS1 [2-[(N-METHYL-N-TRICHLOROMETHANESULFENYL)-CARBAMOYLOXIMINO]-1,4-DITHIANE]
- insect toxicity relative to the methylcarbamoyl composition [1]: essentially equivalent
- pesticidal activity rating, Aphid ([2]; 500 parts per million, 24 hour): A
- LC50 ([2]; Aphis fabae, foliar, 24 h, Table II, read-out: Insect Toxicity, LD50, Aphid): 13 µg/mL (≈ 36.5 µM)
- systemic activity relative to the methylcarbamoyl composition (mites): higher degree of systemic activity
- LC50 (mites; Tetranychus urticae, systemic, soil drench, value in parentheses, read-out: Insect Toxicity, LD50, Mite, systemic activity): 3 µg/mL (≈ 8.43 µM)
